Source: patent US20260060973A1, “Ophthalmic Composition for Treating Non-Infectious Inflammatory Diseases” (VIVAVISION BIOTECH LTD., priority 2023, published 2026)
Entries after “also recorded” stand apart in the source; their conditions may differ.

Experiments:
[1] = target: Janus kinase 1 (JAK1) (Homo sapiens, UniProt P23458); test: Mechanism of action of VVN461; assay type: biochemical
Excerpt: (§1) JAK- or TYK-dependent cytokines are associated with non-infectious inflammatory diseases (e.g., uveitis or other ocular diseases), which is a potential therapeutic target for immune-mediated uveitis. VVN461 can target both Janus kinase 1 (JAK1) and tyrosine kinase 2 (TYK2), target JAK/TYK-dependent cytokines, and inhibit Janus kinase (JAK)/signal transducer and activation of transcription (STAT) pathway, and thus can be used for the treatment of non-infectious inflammatory diseases such as uveitis. […] These phosphorylated receptor residues that act as binding sites for STAT proteins are activated by the phosphorylation of the JAKs, so that STAT proteins are dimerized and translocated to the nucleus of the cell, thereby bind to specific DNA sites and regulate gene expression, which in turn leads to inflammation. In contrast, VVN461 of the present application can target JAK/TYK-dependent cytokines and inhibit the JAK/STAT pathway, and thus can be used for the treatment of non-infectious inflammatory diseases such as uveitis.

[2] = target: tyrosine kinase 2 (TYK2) (Homo sapiens, UniProt P29597); test: Mechanism of action of VVN461; assay type: biochemical
Excerpt: as §1

[3] = Solubility in water; assay type: physicochemical

tyrosine kinase 2 (TYK2), sequence (P29597 whole entry, species assumed): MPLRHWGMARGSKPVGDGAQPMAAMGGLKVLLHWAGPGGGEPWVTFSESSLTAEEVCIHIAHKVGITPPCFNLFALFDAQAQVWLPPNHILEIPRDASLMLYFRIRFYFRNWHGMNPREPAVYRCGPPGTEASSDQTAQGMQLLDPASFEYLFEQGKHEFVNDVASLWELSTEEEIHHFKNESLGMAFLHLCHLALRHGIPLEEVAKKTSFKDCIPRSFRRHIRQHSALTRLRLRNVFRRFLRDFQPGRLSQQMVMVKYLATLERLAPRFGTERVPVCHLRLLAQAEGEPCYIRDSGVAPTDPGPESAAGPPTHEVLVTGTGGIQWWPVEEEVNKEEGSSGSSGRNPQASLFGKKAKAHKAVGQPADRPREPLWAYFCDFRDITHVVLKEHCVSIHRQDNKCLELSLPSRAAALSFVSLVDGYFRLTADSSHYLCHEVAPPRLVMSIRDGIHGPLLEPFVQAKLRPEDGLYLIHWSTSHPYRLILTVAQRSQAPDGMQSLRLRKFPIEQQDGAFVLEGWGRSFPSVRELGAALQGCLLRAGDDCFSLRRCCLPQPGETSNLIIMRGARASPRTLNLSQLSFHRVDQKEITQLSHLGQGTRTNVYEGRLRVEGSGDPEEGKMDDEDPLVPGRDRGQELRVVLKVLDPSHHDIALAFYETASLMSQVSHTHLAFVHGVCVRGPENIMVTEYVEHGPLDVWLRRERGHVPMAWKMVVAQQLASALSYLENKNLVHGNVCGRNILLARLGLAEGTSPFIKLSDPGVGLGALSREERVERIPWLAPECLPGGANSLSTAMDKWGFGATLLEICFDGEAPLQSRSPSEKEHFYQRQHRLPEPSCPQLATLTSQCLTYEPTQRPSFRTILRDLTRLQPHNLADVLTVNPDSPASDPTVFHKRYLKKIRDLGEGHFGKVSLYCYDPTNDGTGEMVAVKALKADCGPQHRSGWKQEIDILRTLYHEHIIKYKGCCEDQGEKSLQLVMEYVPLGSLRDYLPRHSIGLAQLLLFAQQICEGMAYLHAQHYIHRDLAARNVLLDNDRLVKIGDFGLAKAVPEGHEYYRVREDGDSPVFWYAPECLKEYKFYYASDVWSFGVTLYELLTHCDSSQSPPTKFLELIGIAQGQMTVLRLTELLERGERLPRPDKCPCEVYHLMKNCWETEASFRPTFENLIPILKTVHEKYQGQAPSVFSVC
Janus kinase 1 (JAK1), sequence (P23458 whole entry, species assumed): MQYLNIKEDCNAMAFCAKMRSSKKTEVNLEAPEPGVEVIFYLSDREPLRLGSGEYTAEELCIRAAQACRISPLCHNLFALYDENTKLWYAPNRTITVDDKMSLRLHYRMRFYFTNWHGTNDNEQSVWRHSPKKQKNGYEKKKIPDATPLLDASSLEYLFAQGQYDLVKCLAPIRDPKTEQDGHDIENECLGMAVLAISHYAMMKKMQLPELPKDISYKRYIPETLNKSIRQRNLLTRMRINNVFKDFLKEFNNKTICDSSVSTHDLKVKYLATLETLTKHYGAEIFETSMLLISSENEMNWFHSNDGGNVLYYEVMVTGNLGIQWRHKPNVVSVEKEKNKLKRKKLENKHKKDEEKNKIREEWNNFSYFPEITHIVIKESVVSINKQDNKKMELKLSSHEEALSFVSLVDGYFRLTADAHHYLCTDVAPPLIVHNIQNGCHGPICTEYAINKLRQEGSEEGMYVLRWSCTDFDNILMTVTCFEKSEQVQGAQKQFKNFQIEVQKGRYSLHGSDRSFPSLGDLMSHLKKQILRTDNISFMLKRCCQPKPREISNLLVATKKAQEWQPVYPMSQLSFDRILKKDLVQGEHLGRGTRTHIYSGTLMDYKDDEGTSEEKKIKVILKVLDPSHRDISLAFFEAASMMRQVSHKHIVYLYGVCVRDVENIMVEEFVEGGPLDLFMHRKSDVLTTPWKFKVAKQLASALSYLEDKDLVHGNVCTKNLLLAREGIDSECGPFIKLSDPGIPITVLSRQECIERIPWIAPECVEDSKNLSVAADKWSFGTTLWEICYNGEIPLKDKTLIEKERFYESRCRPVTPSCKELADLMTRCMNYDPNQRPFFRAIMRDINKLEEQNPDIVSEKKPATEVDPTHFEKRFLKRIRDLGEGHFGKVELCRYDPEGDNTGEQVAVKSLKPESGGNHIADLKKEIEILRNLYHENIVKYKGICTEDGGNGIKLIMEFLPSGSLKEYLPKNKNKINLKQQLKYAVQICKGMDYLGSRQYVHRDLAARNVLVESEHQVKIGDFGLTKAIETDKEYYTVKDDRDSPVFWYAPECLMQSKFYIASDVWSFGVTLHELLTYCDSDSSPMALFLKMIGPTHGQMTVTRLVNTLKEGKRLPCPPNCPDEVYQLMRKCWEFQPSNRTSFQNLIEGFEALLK

## C[C@@H](O)c1nc2cnc3[nH]ccc3c2n1N1CCC(CC#N)CC1 [VVN461, (R)-2-(1-(2-(1-hydroxyethyl)imidazo[4,5-d]pyrrolo[2,3-b]pyridin-1(6H)-yl)piperidin-4-yl)acetonitrile]
[1]
  JAK1 inhibition: dual JAK1/TYK2 inhibitor
[2]
  TYK2 inhibition: dual JAK1/TYK2 inhibitor
[3]
  solubility: practically insoluble in water; also recorded: low water solubilities
